Reference: PMC7279002, “Novel 3′-Substituted-1′,2′,4′-Oxadiazole Derivatives of 18βH-Glycyrrhetinic Acid and Their O-Acylated Amidoximes: Synthesis and Evaluation of Antitumor and Anti-Inflammatory Potential In Vitro and In Vivo” (International Journal of Molecular Sciences, 2020)
Like-named read-outs stand apart in the source and are kept apart here.

Key:
[1] = test system: human cervical carcinoma HeLa; experiment: MTT cytotoxicity assay, 48 h; assay type: cell-based; conditions: for IC50: MTT, 48 h, read-out: IC50, µM Cervix HeLa; for Selectivity index: HeLa: IC50 in hFF3 / IC50 in HeLa
Protocol: (§1) On the first step of the biological evaluation of novel GA derivatives 3a-h, 4a-h, and 5a-h, we analyzed their cytotoxicity in a panel of cultured mammalian cells, including human cervical carcinoma HeLa and KB-3-1, human duodenal carcinoma HuTu-80, human lung adenocarcinoma A549, murine melanoma B16 cell lines, and nontransformed human fibroblasts hFF3. The cells were treated with derivatives for 48 h and cell viability was evaluated by 3-(4, 5-dimethylthiazol-2-yl)-2, 5-diphenyltetrazolium bromide (MTT) assay. Since the studied compounds contain two types of functional groups at position 3-acetoxy- or the hydroxyl-group, 3-acetoxy-GA 1 and GA-Me were used as references. Additionally, hierarchical clustering of cytotoxic data was carried out in order to reveal groups of compounds with similar cytotoxic profiles (Figure 2A).
(§2) Human cervical carcinoma HeLa and KB-3-1 cells, human duodenal carcinoma HuTu-80 cells, and human lung adenocarcinoma A549 cells were obtained from the Russian Culture Collection (Institute of Cytology, RAS, St. Petersburg, Russia). Melanoma B16-F10 (hereafter, melanoma B16) cells were obtained from the Cell Culture Bank of the Blokhin National Medical Oncology Research Center (Moscow, Russia). Nonmalignant fibroblasts hFF3 and RAW264.7 macrophages were kindly provided by Dr. Olga A. Koval (Institute of Chemical Biology and Fundamental Medicine, SB RAS, Novosibirsk, Russia) and Prof. Dmitry Kuprash (Engelhardt Institute of Molecular Biology, RAS, Moscow, Russia), respectively. The cells were cultured in DMEM (Sigma-Aldrich Inc., St. Louis, MO, USA) supplemented with 10% (v/v) heat-inactivated fetal bovine serum (FBS) (BioloT, St. Petersburg, Russia) and antibiotic–antimycotic solution (100 U/mL penicillin, 100 µg/mL streptomycin, 0.25 µg/mL amphotericin). […] The cells were incubated at 37 °C in a humidified 5% CO2-containing air atmosphere (hereafter referred to as standard conditions). GA derivatives were dissolved in DMSO (stock solutions: 10 mM) and stored at −20 °C prior to use.
(§3) Cells were seeded in tetra- or pentaplicates in 96-well plates at a density of 10^4 (tumor cells and […] fibroblasts) or 10^5 (RAW264.7 cells) cells per well. Cells were incubated under standard conditions for 24 h, followed by their treatment with the investigated derivatives (0.5–50 µM) or corresponding concentrations of DMSO (control) for a further 48 h (tumor cells and fibroblasts) or 24 h (RAW264.7 cells). At the end of incubation period, 10 µL of MTT solution was added to the cells (final concentration: 0.5 mg/mL) and plates were incubated for an additional 2 h under standard conditions. Then, the MTT-containing medium was aspirated and formazan crystals formed in living cells were solubilized with 100 µL of DMSO. The absorbance of each well was read at test and reference wavelengths of 570 and 620 nm, respectively, on a Multiscan RC plate reader (Thermo LabSystems, Helsinki, Finland). The IC50 values (the concentration of compounds leading to a decrease of A570 to 50% of A570^control) were calculated by extrapolation of the dose–response curves. […] A heatmap of SI values was constructed by Microsoft Excel 2010.

[2] = test system: human cervical carcinoma KB-3-1; experiment: MTT cytotoxicity assay, 48 h; assay type: cell-based; conditions: for IC50: MTT, 48 h, read-out: IC50, µM Cervix KB-3-1; for Selectivity index: KB-3-1: IC50 in hFF3 / IC50 in KB-3-1
Protocol: as §1, §2, §3

[3] = test system: human duodenal carcinoma HuTu-80; experiment: MTT cytotoxicity assay, 48 h; assay type: cell-based; conditions: for IC50: MTT, 48 h, read-out: IC50, µM Duodenum HuTu-80; for Selectivity index: HuTu-80: IC50 in hFF3 / IC50 in HuTu-80
Protocol: as §1, §2, §3

[4] = test system: human lung adenocarcinoma A549; experiment: MTT cytotoxicity assay, 48 h; assay type: cell-based; conditions: for IC50: MTT, 48 h; for Selectivity index: A549: IC50 in hFF3 / IC50 in A549
Protocol: as §1, §2, §3

murine melanoma B16 = experiment: MTT cytotoxicity assay, 48 h; assay type: cell-based; conditions: for Selectivity index: B16: IC50 in hFF3 / IC50 in B16; for IC50: MTT, 48 h
Protocol: as §1, §2, §3

[5] = test system: nontransformed human fibroblasts hFF3; experiment: MTT cytotoxicity assay, 48 h; assay type: cell-based
Protocol: as §1, §2, §3

[6] = test system: HeLa, KB-3-1, HuTu-80, A549, B16 and hFF3 cells; experiment: MTT cytotoxicity, summary over the panel of cell lines; assay type: cell-based; conditions: for IC50: median over all tested cell lines, read-out: median IC50
Protocol: as §1, §3

[7] = Homo sapiens, HFF-3, read-out: IC50, µM Fibroblast hFF3

Row | SMILES | IC50 ([1]; Homo sapiens, HeLa) [µM] | Selectivity index: HeLa [1] | IC50 ([2]; Homo sapiens, KB 3-1) [µM] | Selectivity index: KB-3-1 [2] | IC50 ([3]; Homo sapiens, HuTu80) [µM] | Selectivity index: HuTu-80 [3] | IC50 ([4]; Homo sapiens, A549) [µM] | Selectivity index: A549 [4] | Selectivity index: B16 (murine melanoma B16) | IC50 (murine melanoma B16; Mus musculus) [µM] | IC50 [5, 7] [µM] | IC50 [6] [µM] | melting point | IC50 [1] [µM] | IC50 [2] [µM] | IC50 [3] [µM] | IC50 [4] [µM] | IC50 (murine melanoma B16) [µM] | IC50 ([5]; read-out: IC50, µM Fibroblast hFF3) [µM] | median SI ([6]; in all tumor cells)
1 | CC(=O)O[C@H]1CC[C@@]2(C)C(CC[C@]3(C)C2C(=O)C=C2[C@@H]4C[C@@](C)(C(=O)O)CC[C@]4(C)CC[C@]23C)C1(C)C (stereo partly drawn) [Compound 1, 3β-acetoxy-11-oxo-18βH-olean-12-en-29-oic acid, reference compound] | 12.7 ± 1.1 | 1.1 | 7.4 ± 0.6 | 1.8 | 2.9 ± 0.1 | 4.7 | 15.9 ± 2.3 | 0.9 | 1.2 | 11.5 ± 1.5 | 13.6 ± 2.2 | – | – | – | – | – | – | – | – | –
2 | CC(=O)O[C@H]1CC[C@@]2(C)C(CC[C@]3(C)C2C(=O)C=C2[C@@H]4C[C@@](C)(C(=O)O/N=C(\C)N)CC[C@]4(C)CC[C@]23C)C1(C)C (stereo partly drawn) [Compound 3a] | 2.6 ± 0.1 | 0.7 | 5.9 ± 0.2 | 0.3 | 2.3 ± 0.1 | 0.7 | 2.6 ± 0.1 | 0.7 | 0.3 | 6.8 ± 0.2 | 1.7 ± 0.1 | 2.6 | 112.8 to 117.3 °C | – | – | – | – | – | – | –
3 | CC/C(N)=N\OC(=O)[C@@]1(C)CC[C@]2(C)CC[C@]3(C)C(=CC(=O)C4[C@@]5(C)CC[C@H](OC(C)=O)C(C)(C)C5CC[C@]43C)[C@@H]2C1 (stereo partly drawn) [Compound 3b] | 3.3 ± 0.2 | 0.9 | 6.7 ± 0.7 | 0.4 | 2.4 ± 0.2 | 1.2 | 7.3 ± 3 | 0.4 | 0.4 | 7.2 ± 0.6 | 2.9 ± 0.3 | – | 120 °C (dec.) | – | – | – | – | – | – | –
4 | CC(=O)O[C@H]1CC[C@@]2(C)C(CC[C@]3(C)C2C(=O)C=C2[C@@H]4C[C@@](C)(C(=O)O/N=C(/N)C(C)C)CC[C@]4(C)CC[C@]23C)C1(C)C (stereo partly drawn) [Compound 3c] | 3 ± 0.2 | 0.9 | 4.9 ± 0.4 | 0.5 | 2.1 ± 0.2 | 1.2 | 2.6 ± 0.1 | 1.0 | 0.5 | 5.6 ± 0.2 | 2.6 ± 0.1 | – | 120.3 °C (dec.) | – | – | – | – | – | – | –
5 | CC(=O)O[C@H]1CC[C@@]2(C)C(CC[C@]3(C)C2C(=O)C=C2[C@@H]4C[C@@](C)(C(=O)O/N=C(/N)c5ccccc5)CC[C@]4(C)CC[C@]23C)C1(C)C (stereo partly drawn) [Compound 3e] | 5.8 ± 0.8 | 1.3 | 16 ± 1.4 | 0.5 | 7.5 ± 0.1 | 1.0 | 4.9 ± 0.4 | 1.5 | 0.4 | 16.4 ± 0.7 | 7.3 ± 0.3 | – | 144.6 to 145 °C | – | – | – | – | – | – | –
6 | CC(=O)O[C@H]1CC[C@@]2(C)C(CC[C@]3(C)C2C(=O)C=C2[C@@H]4C[C@@](C)(C(=O)O/N=C(/N)c5ccccn5)CC[C@]4(C)CC[C@]23C)C1(C)C (stereo partly drawn) [Compound 3f] | 6.4 ± 1 | 1.2 | 10.9 ± 2.2 | 0.7 | 6.9 ± 0.3 | 1.1 | 7.7 ± 1.8 | 1.0 | 0.3 | 22.5 ± 3.1 | 7.6 ± 1 | – | 165.8 °C (dec.) | – | – | – | – | – | – | –
7 | CC(=O)O[C@H]1CC[C@@]2(C)C(CC[C@]3(C)C2C(=O)C=C2[C@@H]4C[C@@](C)(C(=O)O/N=C(/N)c5cccnc5)CC[C@]4(C)CC[C@]23C)C1(C)C (stereo partly drawn) [Compound 3g] | 6.1 ± 1 | 1.4 | 10 ± 0.9 | 0.9 | 4.9 ± 0.3 | 1.7 | 5.6 ± 0.9 | 1.5 | 1.0 | 8.9 ± 1.1 | 8.5 ± 0.3 | – | 149.7 °C (dec.) | – | – | – | – | – | – | –
8 | CC(=O)O[C@H]1CC[C@@]2(C)C(CC[C@]3(C)C2C(=O)C=C2[C@@H]4C[C@@](C)(C(=O)O/N=C(/N)c5ccncc5)CC[C@]4(C)CC[C@]23C)C1(C)C (stereo partly drawn) [Compound 3h] | 7.1 ± 1.4 | 1.6 | 7 ± 1.4 | 1.6 | 5.6 ± 0.1 | 2.0 | 7.1 ± 1.6 | 1.6 | 1.4 | 7.8 ± 1.9 | 11.1 ± 0.5 | – | 161.3 °C (dec.) | – | – | – | – | – | – | –
9 | CC1(C)C2CC[C@]3(C)C(C(=O)C=C4[C@@H]5C[C@@](C)(c6nc(-c7cccnc7)no6)CC[C@]5(C)CC[C@]43C)[C@@]2(C)CC[C@@H]1O (stereo partly drawn) [Compound 5g, 30-nor-3β-hydroxy-11-oxo-20-(3′-(pyridin-3′′-yl)-1′,2′,4′-oxadiazol-5′-yl)-18βH-olean-12-en] | 4.6 ± 0.3 | > 10.9 | 16.9 ± 1.4 | > 3.0 | 4.7 ± 0.2 | > 10.6 | > 50 | – | – | > 50 | > 50 | – | 231.6 °C (dec.) | – | – | – | – | – | – | –
10 | CC1(C)C2CC[C@]3(C)C(C(=O)C=C4[C@@H]5C[C@@](C)(c6nc(-c7ccncc7)no6)CC[C@]5(C)CC[C@]43C)[C@@]2(C)CC[C@@H]1O (stereo partly drawn) [Compound 5h, 30-nor-3β-hydroxy-11-oxo-20-(3′-(pyridin-4′′-yl)-1′,2′,4′-oxadiazol-5′-yl)-18βH-olean-12-en] | 3.5 ± 0.1 | > 14.3 | 4.9 ± 0.3 | > 10.2 | 4.7 ± 0.4 | > 10.6 | > 50 | – | – | > 50 | > 50 | – | 129.5 to 129.9 °C | – | – | – | – | – | – | –
11 | COC(=O)[C@@]1(C)CC[C@]2(C)CC[C@]3(C)C(=CC(=O)[C@@H]4[C@@]5(C)CC[C@H](O)C(C)(C)[C@@H]5CC[C@]43C)[C@@H]2C1 [GA-Me, reference compound] | – | 6.1 | – | 10.9 | – | 10.9 | – | 8.2 | 10.9 | – | – | 1.1 | – | 0.9 ± 0.1 | 0.9 ± 0.1 | 1.6 ± 0.5 | 1.2 ± 0.1 | 0.9 ± 0.1 | 9.8 ± 1 | 10.9
